# From patent US20230020507A1, “COMPOUND AND USE THEREOF IN TREATING AUTOIMMUNE DISEASES” (PARENCHYMA BIOTECH INC., priority 2019, published 2023)
# Legend:
# [1] = test system: Foxp3+ regulatory T cells; assay: In vitro regulatory T cell (Foxp3+ Treg) production from human peripheral blood CD4 T cells; format: cell-based; conditions: anti-CD3/anti-CD28, TGFβ-1, IL-2, 2.5 μM, 7 days
# Procedure: Human peripheral blood (AllCells) and phosphate buffered saline (PBS) were mixed in a ratio of 1:1 to prepare a mixture, followed by allowing the mixture to slowly rise so as not to be mixed into the upper layer of Histopaque (Sigma). After centrifugation at 350 g for 20 minutes, only the monocyte layer in the middle layer was collected and washed with HBSS (Hanks' Balanced Salt Solution, Gibco®). After washing with MACS buffer (Miltenyi Biotec) once more to obtain T-cells, positive selection (autoMACS seperator, Miltenyi Biotec) was performed with CD4 Microbeads (Miltenyi Biotec). The T-cells collected by the above method were prepared by resuspending the cells in RPMI-fetal bovine serum (FBS) 10%+2-ME (mercaptoethanol) medium at 5×10^5/ml. For T-cell activation, 10 μg/ml anti-CD3 (eBioscience™) was dispensed by 150 μl into a 48-well plate, reacted in a cell incubator (37° C., 5% CO2 incubator) for 3 hours, and washed with phosphate buffered saline to prepare the plate. 250 μl of resuspended T-cells was dispensed onto the prepared plate, and each well was treated with 2 μg/ml of anti-CD28 (eBioscience™), 5 ng/ml of TGFβ-1 (R&D systems), and 50 U/ml of IL-2 (Miltenyi Biotec). Each 5 μl of compounds at a concentration of 2.5 μM diluted in RPMI+2ME medium was used for treatment, followed by culturing the same in a cell incubator (37° C., 5% CO2 incubator) for 7 days. As a control, 5 μl of 0.05% dimethylsulfoxide (DMSO)/RPMI medium was used for treatment. After 7 days, in order to confirm effects of producing regulatory T cells, the cultured cells were recovered to determine the presence of Foxp3 protein.
# The recovered cells were placed in a 5 ml FACS tube (BD Falcon) and washed with 1 ml of phosphate buffered saline. The cells were resuspended in 0.1 ml of FACS buffer (0.1% NaN3, 1% FBS) and treated with 1 μg of human immunoglobulin G (Human IgG, Sigma) to prevent non-specific binding of the antibody. After reacting at 4° C. for 15 minutes, the cells were washed with FACS buffer. Then, 1 ml of Fixation/Permeabilization solution (eBioscience™) was added to the FACS tube containing each sample, followed by reaction at 4° C. for 1 hour. Thereafter, the product was washed twice with a Permeabilization buffer (eBioscience™). Then, 0.25 μg of Foxp3 monoclonal antibody (eBioscience™) was used for treatment, followed by staining the sample for 4 to 30 minutes. The cells were washed twice with the permeabilization buffer, suspended in 0.3 ml of FACS buffer, and measured by flow cytometry.
# [2] = test system: IL-1β, IL-6, IL-17A, TNF-α, IL-10 and Foxp3 expression in colon lesions; assay: mRNA expression of inflammatory and immunomodulatory factors in colon of DSS mice (real-time PCR); format: in vivo, mouse; conditions: 20 mg/kg oral, 15th day, compared to solvent control
# Excerpt: On the 15th day of the experiment, the colon of the mouse was excised to prepare an mRNA sample. In order to extract mRNA, the colon tissue was ground with a homogenizer to acquire a homogeneous suspension. […] From the isolated RNA, cDNA was synthesized by reverse transcription followed by confirming the expression of inflammatory cytokines through real-time polymerase chain reaction (PCR) using iQ SYBR-Green Supermix (Bio-rad) in the CFX96 (Bio-rad) detection system. Relative values of the enzyme expression levels were compared by the ΔΔct method using GAPDH as a control enzyme. Herein, one (1) fold was set using the normal mouse colon as a control.
# The real-time polymerase chain reaction was implemented under the conditions of cycles at an annealing temperature of 58′° C. and the following primer sequences were used.
# [3] = test system: C57BL/6 mice with autoimmune encephalomyelitis (EAE); assay: Experimental autoimmune encephalomyelitis (EAE) model of multiple sclerosis, severity index; format: in vivo, mouse; conditions: 20 mg/kg intraperitoneally daily 12th to 17th day
# Procedure: On day 0, myelin oligodendrocyte glycoproteins 35-55 (MOG 35-55, Peptron) (200 μg), heat-killed Mycobacterium tuberculosis (Difco, Cat No. 231141) (500 μg), and adjuvant (Complete Freund's adjuvant, Sigma Aldrich, Cat No. F5506) were mixed together and then submerged for 7 minutes. After subcutaneous injection of 100 μl of the submerged peptide into both flanks of each of C57BL/6 mice (7 weeks old, female, 17±2 g), 100 μl of pertussis toxin (Sigma Aldrich. Cat No. P2980) (200 ng) was administered intravenously to the tail.
# On the 2nd day of the experiment, the same amount of pertussis toxin was administered intravenously. The mice were checked for immersion leaking from the injected site, and visually observed from the 7th day of the experiment in order to confirm the onset of multiple sclerosis.
# The multiple sclerosis index was visually observed and recorded at an interval of 2 days from the 7th day of the experiment in the severity index system classified into 0-5 stages, and autoimmune encephalomyelitis symptoms were indexed according to the following items (see Table 4).
# [4] = test system: C57BL/6 mice with DSS-induced inflammatory bowel disease; assay: DSS-induced inflammatory bowel disease model, severity index and colon weight:length ratio; format: in vivo, mouse; conditions: 20 mg/kg oral daily, compared to solvent control; for inflammatory bowel disease severity index: 2nd to 11th day, 10th day of the experiment; for colon weight:length ratio (intestinal inflammation): 15th day of the experiment
# Procedure: The 1.5% DSS solution was changed at an interval of 2 days. Sterile distilled water was provided for drinking from the 8th day of the experiment. Body weight and severity index were measured at an interval of 2 days from the 0th day of the experiment in order to confirm the onset of inflammatory bowel disease.
# 20 mg/kg of the compound per mouse was completely dissolved in DMSO corresponding to 10% (v/v) of the administered dose, and then diluted in a cremophor EL-phosphate buffered saline mixture in order to produce the final DMSO:Cremophor EL:phosphate buffered saline (1:1:8, v/v/v), followed by oral administration of 200 μl daily for a total of 10 times from the 2nd to 11th days of the experiment. An inflammatory bowel disease severity index was visually observed and recorded at an interval of 2 days according to a severity index system classified into 0 to 10 levels.
# Inflammatory bowel disease symptoms were evaluated by summing the scores of three items according to the following items (Table 3).
# [5] = test system: IFN-γ, IL-17A, IL-1β, IL-10 and Foxp3 expression in spinal cord lesions; assay: mRNA expression of inflammatory and immunomodulatory factors in spinal cord of EAE mice (real-time PCR); format: in vivo, mouse; conditions: 20 mg/kg i.p., 42nd day, compared to solvent control
# Excerpt: On the 42nd day of the experiment, the spinal cord of the mouse was excised to prepare an mRNA sample. In order to extract mRNA, the spinal cord tissue was ground with a homogenizer to obtain a homogeneous suspension. […] Then, cDNA was synthesized from the isolated RNA by reverse transcription, and the expression of inflammatory cytokines was investigated through real-time polymerase chain reaction (PCR) using iQ SYBR-Green Supermix (Bio-rad) in the CFX96 (Bio-rad) detection system. Relative values of the enzyme expression levels were compared by the ΔΔct method using GAPDH as a control enzyme. Herein, one (1) fold was set using the WT mouse spinal cord as a control.
# The real-time polymerase chain reaction was implemented under the conditions of cycles at an annealing temperature of 58° C., and the following primer sequences were used.
# [6] = scale 0-5, solvent control 3.33±0.17
Compound,generation of Foxp3+ regulatory T cells [1],inflammatory bowel disease severity index [4],colon weight:length ratio (intestinal inflammation) [4],other results
"Cc1nc(NC(=O)Cc2c[nH]c3ccc(F)cc23)ccc1Br [Compound 2, N-(5-bromo-6-methylpyridin-2-yl)-2-(5-fluoro-1H-indol-3-yl)acetamide]",promoted,–,–,–
"Cc1nc(NC(=O)Cc2c[nH]c3ccccc23)ccc1Br [Compound 5, N-(5-bromo-6-methylpyridin-2-yl)-2-(1H-indol-3-yl)acetamide]",promoted,–,–,–
"Cc1nc(NC(=O)Cc2c[nH]c3ccc(Cl)cc23)ccc1Br [Compound 8, N-(5-bromo-6-methylpyridin-2-yl)-2-(5-chloro-1H-indol-3-yl)acetamide]",promoted,statistically significant therapeutic effects,significantly suppressed,"expression level of Foxp3 in the colon lesion [2]: significantly increased; expression level of IL-1β in colon lesions [2]: significantly reduced; expression level of IL-6 in colon lesions [2]: significantly reduced; expression level of IL-10 in the colon lesion [2]: significantly increased; expression level of IL-17A in colon lesions [2]: significantly reduced; expression level of TNF-α in colon lesions [2]: significantly reduced; treatment effects on EAE severity index compared to solvent control from the 16th day, maintained after administration was stopped [3]: statistically significant treatment effects; severity index (EAE), 18th day, acute reaction period [3, 6]: 1.17±0.56; severity index (EAE), 36th day, chronic reaction period [3, 6]: 1.17±0.56; expression level of Foxp3 in spinal cord lesions [5]: significantly increased; expression level of IFN-γ in the spinal cord lesion [5]: significantly reduced; expression level of IL-1β in the spinal cord lesion [5]: significantly reduced; expression level of IL-10 in spinal cord lesions [5]: significantly increased; expression level of IL-17A in the spinal cord lesion [5]: significantly reduced"
"O=C(Cc1c[nH]c2ccccc12)Nc1ccc(Cl)c(F)n1 [Compound 23, N-(5-chloro-6-fluoropyridin-2-yl)-2-(1H-indol-3-yl)acetamide]",promoted,–,–,–
"CN(C(=O)Cc1c[nH]c2ccccc12)c1nc2ccccc2s1 [Compound 44, N-(benzo[di]thiazol-2-yl)-2-(1H-indol-3-yl)-N-methyl acetamide]",promoted,statistically significant therapeutic effects,significantly suppressed,–
CN(C(=O)Cc1c[nH]c2ccc(Cl)cc12)c1nc2ccccc2s1 [Compound 47],promoted,–,–,–
"CN(C(=O)Cc1c[nH]c2ccc(F)cc12)c1nc2ccccc2s1 [Compound 60, N-(benzo[di]thiazol-2-yl)-2-(5-fluoro-1H-indol-3-yl)-N-methyl acetamide]",–,statistically significant therapeutic effects,significantly suppressed,–
"COc1cc(NC(=O)Cc2c[nH]c3ccccc23)cc(OC)c1OC [Compound 71, 2-(1H-indol-3-yl)-N-(3,4,5-trimethoxyphenyl)acetamide]",promoted,–,–,–
"O=C(Cc1c[nH]c2ccccc12)Nc1cc(Cl)cc(Cl)c1 [Compound 81, N-(3,5-dichlorophenyl)-2-(1H-indol-3-yl)acetamide]",promoted,–,–,–
